The values below come from patent US20250332173A1, “COMPOUNDS AND METHODS FOR MODULATING NUCLEIC ACID SPLICING” (REMIX THERAPEUTICS INC., priority 2021, published 2025).

Holding throughout (assay type): cell-based, human
The test system of experiment [1] is SMN2 mRNA. The experiment can be described thus: RT-qPCR splicing assay, SMN2 canonical junction (CJ) mRNA. The conditions noted are these: Homo sapiens; Table 5 panel; canonical junction qPCR; compound concentration having 50% response in CJ decrease; read-out: SMN2 IC50 (decrease in CJ mRNA levels). The gist of the method:
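K562/A673 cells, 11-pt 3-fold compound titration from 10 uM final, DMSO ≤0.25%, 24 h 37 °C 5% CO2; lyse (DNase I or Igepal/Tris buffer pH 7.4); RT-qPCR for CJ isoform vs housekeeping gene (GAPDH/GUSB/PPIA).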

Experiment [2] relates to HTT. Put plainly: HiBiT protein abundance assay, HTT HiBiT K562 cell line. The note with it: HiBiT K562 cell line, 24 hours, top dose 10 μM; read-out: Effect on protein abundance, HTT (IC50 category). In outline: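 Tagged-protein abundance measured by split-NanoBiT luminescence after lysis, following 24 h compound exposure (37° C; 10 μM top, 3-fold, 10 points; DMSO ≤0.25%) of HiBiT knock-in K562 cells. Percent response vs DMSO and unmodified-cell controls; 4-parameter logistic interpolation at 50% gave IC50.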

The subject of experiment [3] is Target C. The experiment can be described thus: HiBiT protein abundance assay, Target C (Promega Nano-Glo HiBiT Lytic Detection System, knock-in K562 cell line). The note with it: Homo sapiens, K562, 24 h, HiBiT K562 cell line, 24 hours, top dose 10 μM; read-out: Effect on protein abundance, Target C (IC50 category). The gist of the method:
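Protein abundance was read by Nano-Glo HiBiT lytic luminescence after 24 h compound exposure (10-point, threefold series from 10 μM final) of HiBiT knock-in K562 cells. Parental K562 served as baseline; the 50%-abundance concentration was interpolated from a four-parameter logistic fit.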
For orientation: With HiBiT, luminescence reflects the tagged protein that the partner subunit can reach.

Each structure is given as a SMILES string.

One may read the IC50 as the concentration that gives 50% inhibition. For `Cc1cn2cc(-c3cc(F)c4c(=O)n([C@H]5CCNC[C@@H]5F)cnc4c3)cc(F)c2n1` (relative stereo) [Compound 341, 5-fluoro-7-(8-fluoro-2-methylimidazo[1,2-a]pyridin-6-yl)-3-(trans-3-fluoropiperidin-4-yl)quinazolin-4(3H)-one], the IC50 in experiment [1] was < 100 nM; in experiment [2] it was 1000 to 10000 nM; in experiment [3] it was 1000 to 10000 nM.
On to `Cc1cn2cc(-c3cc(F)c4c(=O)n([C@H]5CCN[C@@H](C)C5)cnc4c3)cc(F)c2n1` (relative stereo) [Compound 343, cis-5-fluoro-7-(8-fluoro-2-methylimidazo[1,2-a]pyridin-6-yl)-3-(2-methylpiperidin-4-yl)quinazolin-4(3H)-one], for which the IC50 in experiment [1] was < 100 nM; in experiment [2], 100 to 1000 nM; in experiment [3], 100 to 1000 nM.
Turning to `Cc1cn2nc(-c3cc(F)c4c(=O)n([C@H]5CCNC6(CC6)C5)cnc4c3)cc(C)c2n1` (single isomer, unassigned) [Compound 357], the IC50 in experiment [1], in experiment [2] and in experiment [3] was < 100 nM throughout.
For `CN1CCN(c2ccc3c(=O)n(-c4ccc5nn(C)cc5c4)cnc3c2)CC1` [Compound 152], the IC50 in experiment [1], in experiment [2] and in experiment [3] was > 10000 nM in each case.
`Cn1cc2cc(-n3cnc4cc(N5CCNCC5)ccc4c3=O)ccc2n1` [Compound 153]: the half-maximal inhibitory concentration (IC50) is 1000 to 10000 nM in experiment [1], > 10000 nM in experiment [2] and > 10000 nM in experiment [3].
Consider `Cc1cc(-c2ccc3c(=O)n(C4CCN(C)CC4)cnc3c2)cc2cn(C)nc12` [Compound 156], for which the IC50 in experiment [1] was 100 to 1000 nM; in experiment [2] it was 1000 to 10000 nM; in experiment [3], > 10000 nM.
As to `Cc1cc(-c2ccc3c(=O)n(C4CC(C)(C)NC(C)(C)C4)cnc3c2)cc2cn(C)nc12` [Compound 157], the IC50 in experiment [1], in experiment [2] and in experiment [3] was 1000 to 10000 nM throughout.
Turning to `Cn1cc2cc(-n3cnc4cc(C5=CCNCC5)ccc4c3=O)ccc2n1` [Compound 158], the IC50 in experiment [1] was > 10000 nM; in experiment [2], > 10000 nM; in experiment [3] it was 1000 to 10000 nM.
On to `CN1CC=C(c2ccc3c(=O)n(-c4ccc5nn(C)cc5c4)cnc3c2)CC1` [Compound 159], for which the IC50 in experiment [1], in experiment [2] and in experiment [3] was > 10000 nM each time.
Regarding `CCN1CCC(n2ncc3cc(-c4cc(C)c5nc(C)cn5n4)ccc3c2=O)CC1` [Compound 266], the IC50 was < 100 nM in experiment [1], < 100 nM in experiment [2] and 100 to 1000 nM in experiment [3].
Take `Cc1cn2nc(-c3ccc4c(c3)CCN(C3CCNC(C)(C)C3)C4=O)cc(C)c2n1` (stereo not drawn) [Compound 267]: the IC50 is < 100 nM in experiment [1], 100 to 1000 nM in experiment [2] and 1000 to 10000 nM in experiment [3].
For `Cc1cn2nc(-c3ccc4c(c3)CCN(C3CCN(C)CC3)C4=O)cc(C)c2n1` [Compound 268] the same measures were < 100 nM, 1000 to 10000 nM and > 10000 nM.
`Cc1cn2nc(-c3ccc4c(c3)CCN(C3CCNC3)C4=O)cc(C)c2n1` (stereo not drawn) [Compound 269]: the results for the IC50 in experiment [1], in experiment [2] and in experiment [3] were 1000 to 10000 nM, > 10000 nM and 1000 to 10000 nM, respectively.
For `CCN1CCC(N2CCc3cc(-c4cc(C)c5nc(C)cn5n4)ccc3C2=O)CC1` [Compound 270], the IC50 was 100 to 1000 nM in experiment [1], 1000 to 10000 nM in experiment [2] and > 10000 nM in experiment [3].
For `Cc1cn2nc(-c3ccc4c(=O)n(C5CCN(C)C5)ncc4c3)cc(C)c2n1` (stereo not drawn) [Compound 271], in that order: 100 to 1000 nM, 1000 to 10000 nM and 1000 to 10000 nM.
On to `Cc1cn2nc(-c3ccc4c(=O)n([C@@H]5CCN[C@H](C)C5)ncc4c3)cc(C)c2n1` [Compound 272], for which the IC50 in experiment [1] is < 100 nM; in experiment [2], < 100 nM; in experiment [3], 100 to 1000 nM.
On to `Cc1cn2nc(-c3ccc4c(=O)n(C5CCNC6(CC6)C5)ncc4c3)cc(C)c2n1` (stereo not drawn) [Compound 274], for which the IC50 in experiment [1], in experiment [2] and in experiment [3] was < 100 nM in each case.
Take `Cc1cn2cc(-c3ccc4c(=O)n(C5CCNCC5)ccc4c3)cc(F)c2n1` [Compound 276]: the IC50 in experiment [1], in experiment [2] and in experiment [3] was < 100 nM throughout.
As for `Cc1cn2nc(-c3ccc4c(=O)n([C@@H]5CCN(C)[C@H](C)C5)ncc4c3)cc(C)c2n1` [Compound 277], the figures for the IC50 in experiment [1], in experiment [2] and in experiment [3] were < 100 nM, 100 to 1000 nM and 100 to 1000 nM, respectively.
For the compound `Cc1cn2nc(-c3ccc4c(=O)n([C@H]5CCN(C)[C@H](C)C5)ncc4c3)cc(C)c2n1` [Compound 278], the IC50 in experiment [1], in experiment [2] and in experiment [3] was < 100 nM throughout.
Consider `Cc1cn2nc(-c3ccc4c(=O)n(C5CCNC(C)(C)C5)ncc4c3)cc(C)c2n1` (stereo not drawn) [Compound 279], for which the IC50 in experiment [1], in experiment [2] and in experiment [3] was < 100 nM each time.
As to `Cc1cn2nc(-c3ccc4c(=O)n([C@@H]5C[C@H]6CC[C@@H](C5)N6)ncc4c3)cc(C)c2n1` [Compound 280], the IC50 in experiment [1] is < 100 nM; in experiment [2], 100 to 1000 nM; in experiment [3] it was 100 to 1000 nM.
In the case of `Cc1cn2nc(-c3ccc4c(c3)CCN([C@@H]3CCN[C@H](C)C3)C4=O)cc(C)c2n1` [Compound 281], the half-maximal inhibitory concentration (IC50) in experiment [1] was 100 to 1000 nM; in experiment [2] it was 1000 to 10000 nM; in experiment [3], 1000 to 10000 nM.
In the case of `Cc1cn2nc(-c3ccc4c(c3)CCN(C3CCN(C)C3)C4=O)cc(C)c2n1` (stereo not drawn) [Compound 282], the half-inhibitory concentration (IC50) in experiment [1] is 1000 to 10000 nM; in experiment [2] it was > 10000 nM; in experiment [3] it was > 10000 nM.
For the compound `Cc1cn2nc(-c3ccc4c(=O)n(C5CCCNCC5)ncc4c3)cc(C)c2n1` (stereo not drawn) [Compound 283], the figures for the IC50 in experiment [1], in experiment [2] and in experiment [3] were < 100 nM, < 100 nM and 100 to 1000 nM, respectively.
Turning to `O=c1c2ccc(-c3cn[nH]c3)cc2ncn1C1CCNCC1` [Compound 284], the IC50 in experiment [1] is 1000 to 10000 nM; in experiment [2], > 10000 nM; in experiment [3], > 10000 nM.
For the compound `Cc1nc2c(F)cc(-c3ccc4c(=O)n(C5CCNCC5)cnc4c3)cc2s1` [Compound 285], the values for the IC50 in experiment [1], in experiment [2] and in experiment [3] were < 100 nM, 1000 to 10000 nM and 1000 to 10000 nM, respectively.
Regarding `Cc1cn2cc(-c3ccc4c(=O)n(C5CCNCC5)cnc4c3)nc2c(C)n1` [Compound 286], the IC50 was in the range of 100 to 1000 nM in experiment [1], 1000 to 10000 nM in experiment [2] and 1000 to 10000 nM in experiment [3].
As to `Cc1cn2nc(-c3ccc4c(=O)n(C5CCNCC5)cnc4c3)nc2c(C)n1` [Compound 287, 7-{6,8-dimethyl-[1,2,4]triazolo[1,5-a]pyrazin-2-yl}-3-(piperidin-4-yl)quinazolin-4-one], the IC50 is < 100 nM in experiment [1], 100 to 1000 nM in experiment [2] and 100 to 1000 nM in experiment [3].
For the compound `Cc1cn2nc(-c3ccc4c(=O)n(C5CCN(C)CC5)cnc4c3)nc2c(C)n1` [Compound 288, 7-{6,8-dimethyl-[1,2,4]triazolo[1,5-a]pyrazin-2-yl}1-3-(1-methylpiperidin-4-yl)quinazolin-4-one], the 50% inhibitory concentration (IC50) in experiment [1], in experiment [2] and in experiment [3] was 1000 to 10000 nM each time.
With `Cc1cn2nc(-c3ccc4c(=O)n(C5CCN(C)CC5)cnc4c3F)cc(C)c2n1` [Compound 290], the IC50 in experiment [1], in experiment [2] and in experiment [3] was 100 to 1000 nM each time.
Regarding `Cc1cn2cc(-c3ccc4c(=O)n(C5CCNCC5)cnc4c3)cc(Cl)c2n1` [Compound 291], the IC50 in experiment [1] was < 100 nM; in experiment [2], 100 to 1000 nM; in experiment [3], 100 to 1000 nM.
Take `Cc1cn2cc(-c3ccc4c(=O)n(C5CCNCC5)cnc4c3)cc(C)c2n1` [Compound 292]: the results for the IC50 in experiment [1], in experiment [2] and in experiment [3] were < 100 nM, 100 to 1000 nM and 1000 to 10000 nM, respectively.
For `Cc1cn2cc(-c3ccc4c(=O)n([C@@H]5CCN[C@@H](C)C5)cnc4c3)cc(F)c2n1` [Compound 293], in that order: < 100 nM, 100 to 1000 nM and 1000 to 10000 nM.
For the compound `Cc1cn2cc(-c3ccc4c(=O)n(C5CCN[C@@H](C)C5)cnc4c3)cc(F)c2n1` (stereo partly drawn) [Compound 294], the IC50 in experiment [1] is < 100 nM; in experiment [2] it was 100 to 1000 nM; in experiment [3], 1000 to 10000 nM.
For `Cc1cn2cc(-c3ccc4c(=O)n([C@@H]5CCN[C@H](C)C5)cnc4c3)cc(F)c2n1` [Compound 295], in that order: < 100 nM, 1000 to 10000 nM and 1000 to 10000 nM.
`Cc1cn2cc(-c3ccc4c(=O)n([C@H]5CCN[C@H](C)C5)cnc4c3)cc(F)c2n1` [Compound 296]: the figures for the half-inhibitory concentration (IC50) in experiment [1], in experiment [2] and in experiment [3] were < 100 nM, 100 to 1000 nM and 100 to 1000 nM, respectively.
In the case of `Cc1cn2cc(-c3ccc4c(=O)n(C5CCNCC5)cnc4c3)ncc2n1` [Compound 297], the IC50 in experiment [1] was < 100 nM; in experiment [2], 1000 to 10000 nM; in experiment [3], 1000 to 10000 nM.
Turning to `Cc1cn2nc(-c3ccc4c(=O)n(C5CCNCC5)cnc4c3)cc2c(C)n1` [Compound 298], the IC50 in experiment [1] is < 100 nM; in experiment [2], 100 to 1000 nM; in experiment [3], 1000 to 10000 nM.
